Read-outs that look alike come from different tables or passages of the source.

In assay [1] the test system is human gastric cancer cell line NCI-N87. Put plainly: MTT Cell Proliferation Assay in NCI-N87. It is filed as cell-based. The method, then: To test the activities of tris(8-quinolinolato)gallium(III), ATCC's MTT Cell Proliferation Assay® was performed using human gastric cancer cell line NCI-N87 (differentiated carcinoma). Stock cultures were allowed to grow to 70-80% confluence for this study. The anti-proliferative activity of tris(8-quinolinolato)gallium(III), against the indicated cell line was evaluated in vitro using the ATCC's MTT Cell Proliferation Assay (Catalog No. 30-1010K). NCI-N87 was grown using RPMI1640 (Cell Gro 10-040-CV), with 1% of 1M HEPES, 1% sodium pyruvate, 1% of 45% glucose solution, 10% of heat-inactivated FBS and 1% of pen/strep/glutamine. NCI-N87 cell plates were seeded with 20E+03 cells/well and treated with tris(8-quinolinolato)gallium(III) at 1,000 μM, or a series of 4×dilutions thereof (250 μM, 62.5 μM, etc.). 100 μl of medium was removed from each well at 72 hours post-treatment and 10 μl MTT reagent was added to each well. The plates were incubated plate at 37° C. for 4 hours and then 100 μl of detergent was added. The plates were left overnight at room temperature in the dark and was read on a plate reader using SoftMax® Pro (version 5.2, Molecular Devices).
The absorbance data was analyzed as follows: Absorbance values were converted to Percent of Control and plotted against test agent concentrations for IC50 calculations using SoftMax® Pro (version 5.2, Molecular Devices). The plate blank signal average was subtracted from all wells prior to calculating the Percent of Control. Percent of Control values were calculated by dividing the absorbance values for each test well by the No Drug Control average (column 11 values; cells+vehicle control) and multiplying by 100. Plots of Compound Concentration versus Percent of Control were analyzed using the 4-parameter equation to obtain IC50 values and other parameters that describe the sigmoidal dose response curve.
The IC50 value for the test agents was estimated by curve-fitting the data using the following four parameter-logistic equation:
wherein “Top” is the maximal % of control absorbance (100%) (Value “A” in FIG. 1, 88.3), “Bottom” is the minimal % of control absorbance at the highest agent concentration (down to zero) (Value “D” in FIG. 1, 20.8), Y is the Percent of Control absorbance, X is the test agent Concentration, IC50 is the concentration of agent that inhibits cell growth by 50% compared to the control cells (Value “C” in FIG. 1, 8.42e+03), n is the slope of the curve (Value “B” in FIG. 1, 2.31).

The test system of assay [2] is human esophageal carcinoma cell line OE33. Put plainly: MTT Cell Proliferation Assay in OE33. It is filed as cell-based. The method, then:
To test the activity of tris(8-quinolinolato)gallium(III), ATCC's MTT Cell Proliferation Assay® was performed using human esophageal carcinoma cell line OE33. Stock cultures were allowed to grow to 70-80% confluence for this study. The anti-proliferative activity of tris(8-quinolinolato)gallium(III) against the indicated cell line was evaluated in vitro using the ATCC's MTT Cell Proliferation Assay (Catalog No. 30-1010K). OE33 plates were seeded with 1,200 cells/well, and the cells were grown in RPMI1640 medium containing 1% (1M HEPES), 1% sodium pyruvate, 10% FBS and 1% penicillin/strep/glutamine. Cultures were maintained in a 37° C. humidified 5% CO2/95% air atmosphere. The cells were treated with tris(8-quinolinolato)gallium(III) at 1,000 μM, or a series of 4×dilutions thereof (250 μM, 62.5 μM, etc.). […] The plates were left overnight at room temperature in the dark and was read on a plate reader using SoftMax® Pro (version 5.2, Molecular Devices).
The absorbance data was analyzed as follows: Absorbance values were converted to Percent of Control and plotted against test agent concentrations for IC50 calculations using SoftMax® Pro (version 5.2, Molecular Devices). […] Percent of Control values were calculated by dividing the absorbance values for each test well by the No Drug Control average (column 11 values; cells+vehicle control) and multiplying by 100. […]

Setting [3] is: NCI-N87, four parameter-logistic fit.

As for `[Ga+3].[O-]c1cccc2cccnc12.[O-]c1cccc2cccnc12.[O-]c1cccc2cccnc12` [tris(8-quinolinolato)gallium(III)], in assay [1] (NCI-N87), the “growth inhibition in MTT assay (FIG. 1)” value is listed as “dose-dependent growth inhibition”. The “Bottom, minimal % of control absorbance at the highest agent concentration (Value "D" in FIG. 1)” value in assay [1] (setting [3]) was 20.8 % of control. For the same compound, in assay [1] (setting [3]), the “Top, maximal % of control absorbance (Value "A" in FIG. 1)” value is on record as 88.3 % of control. Also, the IC50 in assay [1] (NCI-N87, four parameter-logistic fit, X axis of FIG. 1 in nM, read-out: IC50 (Value "C" in FIG. 1)) came out at 8420 nM; in assay [1] (NCI-N87 cell line, MTT, 72 hours post-treatment, read-out: IC50 (concentration of agent that inhibits cell growth by 50% compared to the control cells)) it was 8420 nM; in assay [2] (OE33 cell line, MTT, 72 hours post-treatment, read-out: IC50 (concentration of agent that inhibits cell growth by 50% compared to the control cells)), 3.06 µM. In assay [2] (OE33), the “growth inhibition in MTT assay (FIG. 2)” value is “dose-dependent growth inhibition”.

The values above are taken from US20130324513A1, “METHOD FOR TREATING ESOPHAGEAL CANCER” (Niiki Pharma Acquisition Corp. 2, priority 2010, published 2013).
